Measurements: patent US10426817B2, “Treatment of age-related macular degeneration and other eye diseases with apolipoprotein mimetics” (MacRegen, Inc., priority 2017, dated 2019)

Key:
[1] = tested on: neutral lipids in and on the Bruch's membrane; assay: Oil red O (ORO) staining of neutral lipids in Bruch's membrane, macaque study; assay type: in vivo, Macaca fascicularis; conditions: eyes injected with L-4F vs eyes injected with placebo (scrambled L-4F); 6 monthly intravitreal injections, total 625 μg; after 6 months
Method: (§1) The macaque study was conducted according to accepted guidelines.
For staining with oil red O (ORO), specimens were treated with a 0.3% oil red O (Sigma-Aldrich Biochemie GmbH, Hamburg, Germany) solution (in 99% isopropanol) for 30 min at room temperature (RT), followed by immersion in a 60% isopropanol solution for 12 min. After the specimens were washed with deionized water for 3 min, counter-staining was conducted with hematoxylin (Carl Roth GmbH, Karlsruhe, Germany). The specimens were then mounted with mounting solution (Aquatex from Merck Millipore, Darmstadt, Germany), covered with a glass cover slip (Menzel-Graeser GmbH), and examined using a fully automated inverted light microscope for life science (DMI 6000 from Leica Microsystems Wetzlar, Germany). Image analysis was performed by grading the intensity of ORO staining (red color) of the Bruch's membrane (BrM) with scores ranging from 0 to 4, according to a qualitative evaluation assessed in four different regions in two separate slices from each eye (a total of 8 different regions from each eye). Qualitative ORO staining scores at the BrM and the choroid: 0=no staining; 1=+; 2=++; 3=+++; 4=++++.

[2] = tested on: high-sensitivity C-reactive protein (hsCRP); conditions: cynomolgus monkey, in vivo
Method: The macaque study was conducted according to accepted guidelines. […] One eye per animal received 6 monthly injections of the same escalating dosages of L-4F or scrambled L-4F (total of 625 μg) in a 50 μL volume. The second eye per animal was not injected and was just observed.
Clinical laboratory tests including serology, hemograms and liver enzymes were conducted, and ophthalmic examinations were also performed, including fundus photographs, optical coherence tomography (OCT), intraocular pressure testing and blood sampling. After 7 months, all animals were sacrificed and eyes were immediately prepared for histology.
Circulating hsCRP, which is mainly produced in the liver, is a non-specific marker for systemic inflammation.

[3] = tested on: esterified cholesterol in the Bruch's membrane; assay: Filipin staining of esterified cholesterol in Bruch's membrane, macaque study; assay type: in vivo, Macaca fascicularis; conditions: eyes injected with L-4F vs placebo-injected eyes; 6 monthly intravitreal injections
Method: as §1
For staining with filipin, specimens were washed once with deionized water for 5 min and then treated with 70% ethanol for 45 min. After being washed with deionized water for 5 min, the specimens were treated with cholesterol esterase (8.12 units/mL) diluted in 0.1 M potassium phosphate buffer (PPB, pH 7.4) for 3.5 hr at 37° C. The specimens were then washed sequentially with PPB and with phosphate buffered saline (PBS) twice for 3 min, followed by a wash with cold (4° C.) PBS overnight. Filipin staining was then performed with 250 μg/mL filipin (Sigma-Aldrich Biochemie GmbH, Hamburg, Germany), diluted in N,N-dimethylformamide (Merck Millipore, Darmstadt, Germany), for 60 min at RT with light shielding. The specimens were then washed sequentially with PBS and deionized water, mounted with a mounting solution (Mowiol®, Carl Roth GmbH, Karlsruhe, Germany), covered with a glass cover slip, and examined using an inverted fluorescence microscope (DMI 6000 from Leica Microsystems, Wetzlar, Germany). Filipin fluorescence was observed using a UV filter set (λex/λem=350 nm/455 nm). […] Semiquantitative analysis of fluorescence intensity of filipin at three separate regions of the BrM was done on three different slides from the same eye (a total of 9 different regions from each eye).

[4] = tested on: membrane attack complex (MAC, C5b-9); assay: Immunohistochemistry of membrane attack complex, macaque study; assay type: in vivo, Macaca fascicularis; conditions: eyes injected with L-4F vs eyes injected with the scrambled peptide; 6 monthly intravitreal injections
Method: as §1
(§2) Assays for immunohistochemistry of the membrane attack complex (MAC, C5b-9) and complement factor D (CFD) were performed identically except for employment of monoclonal antibodies specific for each complement component. Specimens were treated with 10 μg/mL protease K (Sigma-Aldrich Biochemie GmbH, Hamburg, Germany) in PBS for antigen retrieval for 30 min at RT. Subsequently the sections were blocked with a solution of goat serum (5% goat serum, 0.3% Triton X-100 in PBS) for 60 min at RT. The specimens were then reacted with a first antibody against either C5b-9 (diluted 1:30 in PBS, mouse monoclonal antibody, Dako Deutschland GmbH, Hamburg, Germany) or complement factor D (diluted 1:200 in PBS, mouse monoclonal antibody, Santa Cruz Biotechnology, Dallas, Tex., USA) overnight at 4° C. […] Fluorescence microscopy was conducted using an inverted fluorescence microscope (DMI 6000 from Leica Microsystems, Wetzlar, Germany) and a filter set for λex/λem=470 nm/525 nm. For the semiquantitative analysis of fluorescence intensity of C5b-9, 3-5 different regions in one slide were analyzed for 3 different slides from each eye (a total of 9-15 different regions from each eye). For the semiquantitative analysis of fluorescence intensity of complement factor D, 3 distinct regions for each eye were evaluated.

[5] = tested on: geriatric macaques with naturally occurring age-related maculopathy; assay: Macaque study of age-related maculopathy: fellow-eye effects and tolerability; assay type: in vivo; conditions: 6 monthly intravitreal injections, all macaques
Method: as §1

Bruch's membrane = Bruch's membrane thickness at the temporal outer macula by electron microscopy, macaque study; assay type: in vivo, Macaca fascicularis
Method: as §1
Lipid deposition in the Bruch's membrane contributes to thickening of the BrM. Bruch's membrane thickness was measured at the temporal outer macula of enucleated eyes examined by electron microscopy post-mortem.

[6] = tested on: complement factor D (CFD); assay: Immunohistochemistry of complement factor D, macaque study; assay type: in vivo, Macaca fascicularis; conditions: eyes injected with L-4F vs eyes injected with the scrambled peptide; 6 monthly intravitreal injections
Method: as §1, §2

[7] = in vivo; cited from earlier work
geographic atrophy = conditions: monthly intravitreal injections of 10 mg for 18 months, cited from earlier work

## Ac-DWFKAFYDKVAEKFKEAF-NH2 [L-4F, Ac-DWFKAFYDKVAEKFKEAF-NH2 acetate salt (SEQ. ID. NO. 13)]
[1]
  reduction of lipid deposits from the BrM (oil red O staining): about 56%
[2]
  blood level of hsCRP: did not increase
[3]
  reduction of esterified cholesterol in the BrM (filipin fluorescence, semiquantitative): about 68%
[4]
  decreased level of MAC (C5b-9) in the BrM and the choriocapillaris (fluorescence intensity, semiquantitative): about 58%
[5]
  tolerability (significant adverse event or side effect): well tolerated
Bruch's membrane; eyes injected with L-4F vs eyes injected with placebo
  reduction of BrM thickness: about 24%
Bruch's membrane; injected eyes, electron microscopy post-mortem, mean ± SE
  BrM thickness at the temporal outer macula: 1.31 μm
[6]
  decreased level of complement factor D (fluorescence intensity, semiquantitative): about 41%

## aflibercept: soluble fusion protein containing one or more extracellular domains of one or more VEGFRs; anti-VEGF agent
[7]
  intravitreal half-life: about 9.0 days

## bevacizumab: anti-VEGF antibody or fragment thereof
[7]
  intravitreal half-life: about 9.8 days

## lampalizumab: antigen-binding fragment (Fab) of a humanized monoclonal antibody targeting complement factor D (CFD)
Geographic atrophy; fundus autofluorescence, vs placebo
  reduction in the area of geographic atrophy in the injected eye: about 20%
Geographic atrophy
  reduction in the area of geographic atrophy, subgroup positive for the CFI biomarker: about 44%

## ranibizumab: anti-VEGF antibody or fragment thereof
[7]
  intravitreal half-life: about 7.1 days
